This passage reports calcium oscillation score results from the OligoGym collection.

Bases are written 5' to 3'; sugars and linkages follow in the same order, as letters with counts (s phosphorothioate, o phosphodiester; PS: all linkages phosphorothioate). The collection does not say whether C is 5-methylated. l = locked nucleic acid (LNA); d = 2'-deoxy (DNA)

The target of the data set is Tau. As to the kind of experiment: rat primary cortical neurons, FLIPR, 25 uM ASO.
As to “ACAGCCTCATAAACCTA (sugars l3 d11 l3, PS)”, the calcium oscillation score was 59.4 % of control.

Take “ACAGGAGAGCCATTTCCCAA (sugars l3 d14 l3, PS)”: the calcium oscillation score is 42.9 % of control.

Regarding ACATCCTGCCATACCA (sugars l3 d11 l2, PS), the calcium oscillation score was 45 % of control.

For the sequence “ACATCTAAACACCTCAATCC (sugars l2 d15 l3, PS)”, the calcium oscillation score was 73.2 % of control.

On to ACATCTCTCTAGACAT (sugars l4 d9 l3, PS), for which the calcium oscillation score is 59.5 % of control.

Turning to “ACATCTCTCTAGACATC (sugars l4 d10 l3, PS)”, the calcium oscillation score was 68.4 % of control.

Turning to ACATGCTAATCAATAC (sugars l4 d8 l4, PS), the calcium oscillation score is 57.8 % of control.

Regarding ACATTCTATACTTCAG (sugars l4 d8 l4, PS), the calcium oscillation score is 71.4 % of control.

With “ACCAACTTTCATCTACTTTT (sugars l3 d15 l2, PS)”, the calcium oscillation score was 90.5 % of control.

In the case of ACCAATTAACCGAACT (sugars l3 d10 l3, PS), the calcium oscillation score was 159 % of control.

Consider “ACCAATTAACCGAACTGCGA (sugars l3 d14 l3, PS)”, for which the calcium oscillation score is 22.6 % of control.

“ACCAATTATCTTTAAATTCT (sugars l4 d13 l3, PS)”: the calcium oscillation score was 77 % of control.

Turning to “ACCACACACTCTGATAC (sugars l4 d11 l2, PS)”, the calcium oscillation score is 69 % of control.

In the case of “ACCACATTATCATCCATT (sugars l2 d12 l4, PS)”, the calcium oscillation score is 55.7 % of control.

Consider “ACCACATTATCATCCATTC (sugars l2 d14 l3, PS)”, for which the calcium oscillation score is 51.9 % of control.

As to “ACCACATTATCATCCATTCT (sugars l3 d14 l3, PS)”, the calcium oscillation score is 32.2 % of control.

For the sequence “ACCACCTCATTAAGATC (sugars l4 d11 l2, PS)”, the calcium oscillation score is 58.3 % of control.

In the case of “ACCACTGGCGACTTGTACAC (sugars l3 d14 l3, PS)”, the calcium oscillation score was 5.18 % of control.

Regarding “ACCAGCTAGTGGTGCCACCT (sugars l3 d14 l3, PS)”, the calcium oscillation score is 20.2 % of control.

As to “ACCAGTTACCATCATAC (sugars l4 d11 l2, PS)”, the calcium oscillation score was 93.2 % of control.

Regarding ACCATCATACTCCAAG (sugars l4 d9 l3, PS), the calcium oscillation score was 76 % of control.

“ACCATCATACTCCAAGT (sugars l3 d12 l2, PS)”: the calcium oscillation score is 77.7 % of control.

As for “ACCATCCAAGTCAATGCCTG (sugars l3 d14 l3, PS)”, the calcium oscillation score is 4.03 % of control.

Consider ACCATGATCTTAGGCT (sugars l3 d10 l3, PS), for which the calcium oscillation score is 87.8 % of control.

With “ACCATTAACTGCCTATT (sugars l4 d11 l2, PS)”, the calcium oscillation score is 50.5 % of control.

Take ACCCAATCTTCGACTG (sugars l3 d10 l3, PS): the calcium oscillation score is 43.4 % of control.

“ACCCACTTTCCTAATTCCCA (sugars l1 d17 l2, PS)”: the calcium oscillation score was 76.6 % of control.

Consider “ACCCATCAATTTGGAAAGAT (sugars l3 d14 l3, PS)”, for which the calcium oscillation score was 72.6 % of control.

On to “ACCCATCCCACAAAGAACAG (sugars l3 d14 l3, PS)”, for which the calcium oscillation score was 34.2 % of control.

Take “ACCCATCTTAATTCATTTAA (sugars l3 d14 l3, PS)”: the calcium oscillation score is 96.1 % of control.

For ACCCATTATCTGCTCC (sugars l3 d11 l2, PS), the calcium oscillation score is 50.9 % of control.

As for “ACCCCACATTTGCAAAC (sugars l3 d12 l2, PS)”, the calcium oscillation score was 63.5 % of control.

Consider “ACCCCACATTTGCAAACC (sugars l2 d13 l3, PS)”, for which the calcium oscillation score was 46.2 % of control.

Consider “ACCCCATTTTTGACATA (sugars l3 d12 l2, PS)”, for which the calcium oscillation score is 73.1 % of control.

Take ACCCCGAATTTACACC (sugars l3 d11 l2, PS): the calcium oscillation score is 97.5 % of control.

As for “ACCCCGAATTTACACCC (sugars l1 d14 l2, PS)”, the calcium oscillation score is 86.2 % of control.

For the sequence “ACCCTTACACATAGCTTC (sugars l2 d13 l3, PS)”, the calcium oscillation score was 53.9 % of control.

Consider ACCCTTAGACATAACA (sugars l4 d10 l2, PS), for which the calcium oscillation score was 75.1 % of control.

With “ACCCTTAGACATAACAC (sugars l3 d10 l4, PS)”, the calcium oscillation score was 59.7 % of control.

Turning to “ACCCTTGATCATATTTGTGG (sugars l3 d14 l3, PS)”, the calcium oscillation score is 30.9 % of control.

Turning to “ACCGAACTGCGAGGAGCAGC (sugars l3 d14 l3, PS)”, the calcium oscillation score is 0 % of control.

In the case of “ACCTCATTAAGATCACC (sugars l2 d11 l4, PS)”, the calcium oscillation score was 69.7 % of control.

In the case of “ACCTCCTAGAACACAAC (sugars l4 d10 l3, PS)”, the calcium oscillation score is 53.9 % of control.

For ACCTCCTGGTTTAT (sugars l3 d8 l3, PS), the calcium oscillation score was 89.7 % of control.

With ACCTCCTGGTTTATGA (sugars l3 d10 l3, PS), the calcium oscillation score is 32.2 % of control.

Take “ACCTCCTGGTTTATGATGGA (sugars l3 d14 l3, PS)”: the calcium oscillation score was 0 % of control.

For the sequence ACCTCGTCAGCTAGCG (sugars l3 d10 l3, PS), the calcium oscillation score is 65.2 % of control.

Regarding “ACCTCTTAGTCATCTTCC (sugars l2 d13 l3, PS)”, the calcium oscillation score was 74.4 % of control.

As for “ACCTCTTAGTCATCTTCCC (sugars l2 d15 l2, PS)”, the calcium oscillation score was 67.9 % of control.

As to ACCTGGCCACCTCCTG (sugars l3 d10 l3, PS), the calcium oscillation score was 28.6 % of control.

As for ACCTTACCACTTTCAG (sugars l3 d10 l3, PS), the calcium oscillation score was 104 % of control.

“ACCTTGCTCAGGTCAACTGG (sugars l3 d14 l3, PS)”: the calcium oscillation score was 2.59 % of control.

Take “ACCTTTTTCCATCTTACT (sugars l4 d12 l2, PS)”: the calcium oscillation score is 68.4 % of control.

For “ACCTTTTTCCATCTTACTAA (sugars l4 d13 l3, PS)”, the calcium oscillation score was 52 % of control.

For the sequence “ACGCACCAGGAACCTTCCAG (sugars l3 d14 l3, PS)”, the calcium oscillation score is 36.7 % of control.

As to “ACGTGGGTGATATTGTCCAG (sugars l3 d14 l3, PS)”, the calcium oscillation score is 0 % of control.

Take ACGTTGCTAAGATCCA (sugars l3 d10 l3, PS): the calcium oscillation score was 18.1 % of control.

Consider “ACTAACTCTAAGTAGACCCT (sugars l3 d14 l3, PS)”, for which the calcium oscillation score is 40.3 % of control.

Regarding ACTAATATTAACACTAT (sugars l4 d9 l4, PS), the calcium oscillation score was 79.5 % of control.

“ACTAGCCCACCCATCAATTT (sugars l3 d14 l3, PS)”: the calcium oscillation score is 12.9 % of control.

On to ACTATGAAATCCTTCT (sugars l4 d8 l4, PS), for which the calcium oscillation score was 92.1 % of control.

“ACTCAAATCAATTCTCATTT (sugars l4 d12 l4, PS)”: the calcium oscillation score is 70.1 % of control.

Turning to “ACTCAACATTACCCTTAAA (sugars l4 d11 l4, PS)”, the calcium oscillation score is 82.4 % of control.

Take “ACTCAACATTACCCTTAAAT (sugars l4 d14 l2, PS)”: the calcium oscillation score was 71.5 % of control.

With ACTCAGTTCTCTATAAT (sugars l4 d9 l4, PS), the calcium oscillation score was 64.1 % of control.

As for “ACTCATCAACACCTTTTAAT (sugars l2 d14 l4, PS)”, the calcium oscillation score was 63 % of control.

For the sequence “ACTCATTTACCAATTATCTT (sugars l2 d14 l4, PS)”, the calcium oscillation score was 60.6 % of control.

Consider “ACTCTAAGTAGACCCTGGCC (sugars l3 d14 l3, PS)”, for which the calcium oscillation score was 4.76 % of control.

For “ACTCTTAGCATCCACTT (sugars l4 d11 l2, PS)”, the calcium oscillation score is 40.6 % of control.

On to “ACTCTTTGAACACCCCA (sugars l2 d12 l3, PS)”, for which the calcium oscillation score is 88.9 % of control.

As to “ACTCTTTGAACACCCCAT (sugars l4 d12 l2, PS)”, the calcium oscillation score was 38.3 % of control.

For the sequence ACTGATCATAATCCTA (sugars l3 d9 l4, PS), the calcium oscillation score was 81.1 % of control.

Consider ACTGATCATAATCCTAC (sugars l4 d9 l4, PS), for which the calcium oscillation score was 68.2 % of control.

With ACTGCGAGGAGCAGCT (sugars l3 d10 l3, PS), the calcium oscillation score is 48.1 % of control.

As for “ACTGCTCAGCTAAGACCCTC (sugars l3 d14 l3, PS)”, the calcium oscillation score is 23.9 % of control.

Take “ACTGGCGACTTGTACACGAT (sugars l3 d14 l3, PS)”: the calcium oscillation score is 0 % of control.

With ACTGGTTAGCCCTAAA (sugars l3 d10 l3, PS), the calcium oscillation score was 3.83 % of control.

For the sequence “ACTGGTTTGTAGACTATTTG (sugars l3 d14 l3, PS)”, the calcium oscillation score is 0 % of control.

With ACTGTTACACATTTATC (sugars l4 d9 l4, PS), the calcium oscillation score was 79.8 % of control.

As for “ACTTAAAATTTTTCTTATT (sugars l4 d11 l4, PS)”, the calcium oscillation score was 75.1 % of control.

As to “ACTTAAATTTATTTTCTTTT (sugars l4 d12 l4, PS)”, the calcium oscillation score is 55.8 % of control.

On to ACTTACTGATCATAAT (sugars l4 d8 l4, PS), for which the calcium oscillation score is 77.2 % of control.

With “ACTTATCTATCCATCTAT (sugars l4 d11 l3, PS)”, the calcium oscillation score is 80.2 % of control.

“ACTTATCTATCCATCTATT (sugars l3 d12 l4, PS)”: the calcium oscillation score was 55.8 % of control.

As for ACTTCTAATTTAGTCAC (sugars l4 d9 l4, PS), the calcium oscillation score is 77.2 % of control.

Turning to “ACTTGGGTGGAGTACGGACC (sugars l3 d14 l3, PS)”, the calcium oscillation score is 0 % of control.

For the sequence “ACTTGTACACGATCTCCGCC (sugars l3 d14 l3, PS)”, the calcium oscillation score is 103 % of control.

On to “ACTTTATCCCTCCATGA (sugars l3 d11 l3, PS)”, for which the calcium oscillation score was 39.6 % of control.

Regarding “ACTTTATCCCTCCATGAT (sugars l3 d11 l4, PS)”, the calcium oscillation score was 47.4 % of control.

“ACTTTATTTCCAAATTCACT (sugars l4 d11 l5, PS)”: the calcium oscillation score is 115 % of control.

Take “ACTTTATTTCCAAATTCACT (sugars l5 d10 l5, PS)”: the calcium oscillation score was 98 % of control.

Regarding “ACTTTATTTCCAAATTCACT (sugars l5 d11 l4, PS)”, the calcium oscillation score is 138 % of control.

For “ACTTTATTTCCAAATTCACTT (sugars l5 d11 l5, PS)”, the calcium oscillation score is 121 % of control.

Turning to “ACTTTATTTCCAAATTCACTTTTAC (sugars l1 d1 l2 d18 l3, PS)”, the calcium oscillation score was 23.6 % of control.

For the sequence “ACTTTATTTCCAAATTCACTTTTAC (sugars l1 d19 l5, PS)”, the calcium oscillation score is 86.5 % of control.
